Measurements published in publication PMC10909772 (Saudi Pharmaceutical Journal : SPJ, 2024).
Where two headings read alike, the source gives them in different places.

Tests used:
[1] = biological target: T1, xanthine oxidase (Bos taurus, UniProt P80457); conditions: cited from earlier work; for inhibition of the xanthine oxidase enzyme (in words): ref Mostafa et al., 2007
[2] = biological target: T1, xanthine oxidase; assay: Xanthine oxidase inhibitory assay; type: biochemical
[3] = biological target: T1, xanthine oxidase; assay: Kinetics of xanthine oxidase inhibition; type: biochemical; conditions: Lineweaver-Burk double reciprocal plots, xanthine as substrate

T1 sequence (P80457 whole entry): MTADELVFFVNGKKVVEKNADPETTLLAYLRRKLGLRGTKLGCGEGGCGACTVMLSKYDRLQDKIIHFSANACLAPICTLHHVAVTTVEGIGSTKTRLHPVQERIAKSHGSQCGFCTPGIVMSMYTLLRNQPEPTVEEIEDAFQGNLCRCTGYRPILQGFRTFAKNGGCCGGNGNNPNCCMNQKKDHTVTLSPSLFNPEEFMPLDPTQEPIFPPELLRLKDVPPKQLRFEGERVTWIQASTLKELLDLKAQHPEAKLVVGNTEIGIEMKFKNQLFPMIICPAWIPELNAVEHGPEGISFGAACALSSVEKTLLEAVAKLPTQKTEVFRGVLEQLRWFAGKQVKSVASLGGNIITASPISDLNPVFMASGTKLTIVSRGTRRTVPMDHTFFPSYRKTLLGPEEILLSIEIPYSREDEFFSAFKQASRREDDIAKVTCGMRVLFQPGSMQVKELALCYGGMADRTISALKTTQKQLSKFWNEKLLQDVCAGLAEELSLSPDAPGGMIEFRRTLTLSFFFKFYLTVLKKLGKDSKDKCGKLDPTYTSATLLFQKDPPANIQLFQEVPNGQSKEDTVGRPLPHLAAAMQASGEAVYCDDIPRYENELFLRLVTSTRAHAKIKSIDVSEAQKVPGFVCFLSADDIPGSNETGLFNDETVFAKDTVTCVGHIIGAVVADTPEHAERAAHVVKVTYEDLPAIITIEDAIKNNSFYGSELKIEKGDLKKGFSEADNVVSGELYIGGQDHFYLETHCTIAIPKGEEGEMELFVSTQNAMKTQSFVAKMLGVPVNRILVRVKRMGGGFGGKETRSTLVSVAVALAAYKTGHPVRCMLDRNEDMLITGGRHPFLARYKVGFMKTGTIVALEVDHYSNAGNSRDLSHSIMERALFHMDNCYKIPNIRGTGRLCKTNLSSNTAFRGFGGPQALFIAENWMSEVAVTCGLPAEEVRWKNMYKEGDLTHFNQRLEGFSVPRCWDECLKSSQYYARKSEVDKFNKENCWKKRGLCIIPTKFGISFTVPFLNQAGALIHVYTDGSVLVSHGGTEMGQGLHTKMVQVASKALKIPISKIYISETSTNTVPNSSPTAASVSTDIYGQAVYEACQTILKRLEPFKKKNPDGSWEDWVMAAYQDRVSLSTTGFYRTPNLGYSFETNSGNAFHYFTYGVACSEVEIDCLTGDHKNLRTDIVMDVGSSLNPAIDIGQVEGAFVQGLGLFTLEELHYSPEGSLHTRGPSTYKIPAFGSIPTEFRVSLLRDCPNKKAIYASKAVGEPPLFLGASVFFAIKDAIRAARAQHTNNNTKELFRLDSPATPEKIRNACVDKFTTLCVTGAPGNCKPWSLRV

## O=c1c(O)c(-c2ccc(O)c(O)c2)oc2cc(O)cc(O)c12 [quercetin]
[1]; ref Lin et al., 2002
  type of inhibition: competitive

## O=c1cc(-c2ccc(O)c(O)c2)oc2cc(O)cc(O)c12 [luteolin]
[1]; read-out: inhibition constant (Ki), ref Yan et al., 2013
  Ki: 2.38 µM
[1]; ref Yan et al., 2013
  IC50: 4.79 µM
  type of inhibition: competitive

## O=c1cc(-c2ccc(O)cc2)oc2cc(O)cc(O)c12 [apigenin]
[1]; ref Lin et al., 2002
  type of inhibition: competitive

## COc1ccc(/C=C/C(=O)O)cc1 [Compound 3, trans-4-methoxycinnamic acid]
[2]
  IC50: 26.3 ± 3.36 µM
[3]
  type of inhibition: competitive

## COC(=O)/C=C/c1ccc(O)c(O)c1 [methyl caffeate]
[1]; ref Nguyen et al., 2006
  IC50: 12.3 µM
  inhibition type: competitive

## COc1ccc(CCO[C@@H]2O[C@H](CO[C@@H]3OC[C@H](O)[C@H](O)[C@H]3O)[C@@H](OC(=O)/C=C/c3ccc(O)c(OC)c3)[C@H](O[C@@H]3O[C@@H](C)[C@H](O)[C@@H](O)[C@H]3O)[C@H]2O)cc1O [angoroside C]
[1]
  inhibition of the xanthine oxidase enzyme (in words): moderate inhibitors

## COc1ccc(CCO[C@@H]2O[C@H](CO)[C@@H](OC(=O)/C=C/c3ccc(O)c(OC)c3)[C@H](O[C@@H]3O[C@@H](C)[C@H](O)[C@@H](O)[C@H]3O[C@@H]3O[C@H](CO)[C@@H](O)[C@H](O)[C@H]3O)[C@H]2O)cc1O [incanoside D]
[1]
  inhibition of the xanthine oxidase enzyme (in words): moderate inhibitors

## O=c1c(O)c(-c2cc(O)c(O)c(O)c2)oc2cc(O)cc(O)c12 [myricetin]
[1]; ref Lin et al., 2002
  type of inhibition: competitive

## Oc1ncnc2[nH]ncc12 [Allopurinol]
[3]
  type of inhibition: competitive

## O=C(O)/C=C/c1ccc(O)c(O)c1 [caffeic acid]
[1]; ref Nguyen et al., 2006
  IC50: 85.4 µM
  inhibition type: competitive

## O=C(O)/C=C/c1ccc(O)cc1 [Compound 5, p-coumaric acid]
[2]
  IC50: 23.3 ± 1.88 µM
[3]
  type of inhibition: competitive

## O=c1c(-c2ccc(O)cc2)coc2cc(O)cc(O)c12 [genistein]
[1]; ref Lin et al., 2002
  type of inhibition: competitive
